US8486381B2, “Methods of modulating intestinal fluid balance” (Amgen Inc., priority 2005, dated 2013)
Entries after “also recorded” stand apart in the source; their conditions may differ. Structures can show the parent of a compound that is named as a salt. Where two headings read alike, the source gives them in different places.

Key:
cyclic AMP = experiment: Secretagogue-stimulated cyclic AMP accumulation in colonic crypt cell suspensions; type: cell-based
cyclic GMP = experiment: Secretagogue-stimulated cyclic GMP accumulation in colonic crypt cell suspensions; type: cell-based; conditions: IBMX 1 mM
[1] = system: proximal and distal colon crypts; type: cell-based, Sprague-Dawley rats
[2] = system: proximal or distal colon segments; type: cell-based, Sprague-Dawley rats
[3] = system: isolated rat colonic crypts; experiment: Net fluid movement (Jv) in in vitro perfused rat colonic crypts; type: cell-based; conditions: for EC50: Rattus norvegicus, read-out: EC50, attenuation of forskolin-induced net fluid secretion, forskolin 10 μM, 0.1 mM Ca^2+; for Effect on net fluid secretion in presence of forskolin and PLC inhibitor U73122: U73122 10 μM, 0.1 mM calcium
[4] = system: colonic crypts from Casr^+/+:Gcm2^+/+ mice; experiment: Net Jv in perfused colonic crypts from wild type mice; type: cell-based; conditions: for Effect on net fluid secretion induced by Guanylin and CTX: Casr^+/+:Gcm2^+/+
[5] = system: colonic crypts from Casr^−/−:Gcm2^−/− mice; experiment: Net Jv in perfused colonic crypts from CaSR null mice; type: cell-based; conditions: for Effect on net fluid secretion induced by Guanylin and CTX: Casr^−/−:Gcm2^−/−
[6] = system: basolateral Cl^− entry into colonic crypt cells via NKCCl; experiment: Cell Cl^− influx measurements (MQAE fluorescence) in colonic crypts; type: cell-based, rat
Protocol: Cl^− Measurements. Cell Cl^− influx measurements (Egan, M. E. et al. Nat. […] Molecular Probes]. After dye loading, crypts were incubated in a Cl^− free HEPES buffer until stable high baseline fluorescence intensity was achieved. Rates of cell Cl^− influx were monitored as rates of reductions in arbitrary MQAE fluorescent units (ΔAFU/min; Ex: 346 nm; EM: 460 nm).

rat colonic crypts = experiment: Absorptive fluid movement (netJv with secretion inhibited) in perfused rat colonic crypts; type: cell-based
[7] = system: apical NHE (Na^+/H^+ exchanger); experiment: NHE activity: Na^+-dependent proton extrusion from colonocytes; type: cell-based, rat; conditions: forskolin present
Excerpt: Cyclic nucleotide-dependent fluid loss in secretory […] occurs through reduction in absorptive, and increases in secretory, processes. Lucas, M. L. J. Appl. Microbiol. 90, 7-26, 2001; Golin-Bisello, F. et al. Am. J. Cell. Physiol. 289, […]-[…], 2005. Colonic epithelial crypts provide a model for understanding intestinal fluid transport as they simultaneously absorb and secrete fluid with the direction of net fluid movement (^netJv) depending on the relative magnitudes of these two processes. A major component of fluid absorption in the colon is mediated by parallel Na^+/H^+ (sodium-hydrogen exchanger, NHE) and Cl^-/HCO3^- exchange located at the apical plasma membranes. Kunzelman, K. et al. Physiol. Rev. 82, 245-289, 2002; Donowith, M. et al. Annu. Rev. Physiol. 48, 135-150, 1986. Cyclic nucleotides reduce this Na^+-dependent fluid absorption by inhibiting NHE activity. […] This basal fluid was likely due to the low levels of cell cyclic nucleotides that remain even in the absence of secretagogues. […] To examine if this latter effect of CaSR agonists on fluid absorption resulted from enhanced apical NHE activity, the effects of Ca^2+ on Na^+-dependent proton extrusion from colonocytes were assessed in the presence of forskolin. […] Cell acid loading was accomplished by exposure to NH4Cl and Na^+-dependent cell pH recovery following removal of NH4Cl was assessed as an index of Na^+/H^+ activity. […]

BALB/c mice [8] = conditions: mouse, in vivo
BALB/c mice [9] = conditions: mouse, in vivo; remark: listed apart in the source
[10] = extracellular calcium raised from 0.1 mM to 2 mM

Question: Which results are given for `CC(C)Cn1c(=O)n(C)c(=O)c2[nH]cnc21` [IBMX, 3-Isobutyl-1-Methylxanthine]?
Answer: Effect on attenuation of cyclic AMP production by 2.0 mM Ca^2+ (cyclic AMP; IBMX added (1 mM per method)): reverses this effect; Effect on attenuation of cyclic GMP production by 2.0 mM Ca^2+ (cyclic GMP): reverses this effect

Question: `NC1=N[C@H](O)[C@H]2[C@H]3O[C@]4(O)O[C@@H]([C@@H](O)[C@@]2(N1)[C@@H]4O)[C@]3(O)CO` [TTX, tetrodotoxin] was tested. Which “Effect on forskolin-induced net fluid secretion” value [1] did it give?
Answer: The value was “did not change the ability of forskolin to induce a net fluid secretion”.

Question: And the “Effect on ability of calcimimetics to reverse forskolin-stimulated increase in Isc” value [2]?
Answer: Its value is “abolished”.

Question: Which “Effect on net fluid secretion induced by Guanylin or STa” value [3] does the source give for `[Ca+2]` [Ca^2+] here?
Answer: Its value is “reversed net fluid secretion”.

Question: And the “Effect on net fluid secretion induced by forskolin or cholera toxin” value [3]?
Answer: The value was “reversed net fluid secretion”.

Question: And the “Effect on forskolin or cholera toxin induced cyclic AMP production” value (cyclic AMP)?
Answer: Its value is “attenuates”.

Question: And the “Effect on net fluid secretion induced by Guanylin and CTX” value (“Effect … by Guanylin and CTX” for short) [4, 10]?
Answer: Its value is “reversed net fluid secretion”.

Question: What about the “Effect … by Guanylin and CTX” value [5, 10] of the same compound?
Answer: Its value is “did not”.

Question: What about the “Effect on Cl^− entry via NKCCl in the presence of CTX” value ([6]; calcium increased from 0.1 to 2 mM) of the same compound?
Answer: The value was “inhibited Cl^− entry”.

Question: What about the “Effect on cAMP-mediated reduction in fluid absorption” value (rat colonic crypts; extracellular Ca^2+ increased to 2 mM) of the same compound?
Answer: The value was “significantly abrogated”.

Question: And the “Increase in NHE activity” value ([7]; basolateral bath Ca^2+ raised from 0.1 to 2 mM)?
Answer: The value was 8 fold.

Question: Which EC50 ([3]; compound in bath) does the source give for `COc1cccc(C(C)NCCCc2ccccc2Cl)c1` (stereo not drawn) [Compound A, S-stereoisomer, N-(3-[2-chlorophenyl]-propyl)-α-methyl-3-methoxybenzylamine HCl] here?
Answer: Its EC50 is 0.619 nM.

Question: What about the EC50 ([3]; compound in lumen) of the same compound?
Answer: The EC50 was 0.756 nM.

Question: `Cn1c(NC[C@@H](N)Cc2ccccc2)nc(-c2ccncc2)c(-c2ccc3ccccc3c2)c1=O` [Compound C, 2-(((2S)-2-amino-3-phenylpropyl)amino)-3-methyl-5-(2-naphthalenyl)-6-(4-pyridinyl)-4(3H)-pyrimidinone] was tested. Which Mortality (BALB/c mice [8]; female, BALB/c) did it give?
Answer: Its Mortality is 100%.

Question: Which results are given for cholera toxin?
Answer: Net fluid movement (Jv) on exposure to secretagogue [3]: induced net fluid secretion; cAMP production on exposure to secretagogue (cyclic AMP): induce cAMP production; also recorded: induce cyclic AMP production; Net fluid movement (Jv) on exposure to secretagogue [4]: induced net fluid secretion; Net fluid movement (Jv) on exposure to secretagogue [5]: induced net fluid secretion

Question: With `COc1cccc([C@@H](C)NCCCc2ccccc2Cl)c1.Cl` [Compound A, N-(3-[2-chlorophenyl]-propyl)-R-α-methyl-3-methoxybenzylamine HCl] as the compound, how does the EC50 ([3]; compound in bath) read?
Answer: Its EC50 is 0.0051 nM.

Question: What about the EC50 ([3]; compound in lumen) of the same compound?
Answer: Its EC50 is 0.0234 nM.

Question: And the “Effect on net fluid secretion in presence of forskolin and PLC inhibitor U73122” value ([3]; compound added to both luminal and bath)?
Answer: The value was “did not completely reverse net fluid secretion”.

Question: What about the “Effect on net fluid secretion in presence of forskolin and PLC inhibitor U73122” value ([3]; compound added to lumen or bath) of the same compound?
Answer: Its value is “had no significant effect on reversing net fluid secretion”.

Question: And the “Effect … by Guanylin and CTX” value ([4]; 100 nM, 0.1 mM calcium)?
Answer: The value was “effectively reversed net fluid secretion”.

Question: What about the “Effect … by Guanylin and CTX” value ([5]; 100 nM, 0.1 mM calcium) of the same compound?
Answer: The value was “did not reverse net fluid secretion”.

Question: What about the “Effect on rate of forskolin-stimulated Cl^− entry” value ([6]; 100 nM in basolateral fluid) of the same compound?
Answer: The value was “significantly reduced”.

Question: And the “Effect on cAMP-mediated reduction in fluid absorption” value (rat colonic crypts; added to basolateral bath in the presence of 0.5 mM calcium)?
Answer: The value was “significantly abrogated”.

Question: And the “Increase in NHE activity” value ([7]; Compound A added to the 2 mM Ca^2+-containing bath)?
Answer: The value was 12 fold.

Question: And the “Effect on forskolin-induced net fluid secretion in presence of TTX” value [1]?
Answer: The value was “attenuated forskolin-induced net fluid secretion”.

Question: What does the source list for `COc1ccc(CNC(C)c2ccccc2)cc1-c1ccc(C(F)(F)F)cc1` (stereo not shown) [Compound B, N-((6-(methyloxy)-4′-(trifluoromethyl)-1,1′-biphenyl-3-yl)methyl)-1-phenylethanamine]?
Answer: Cholera toxin-induced gastrointestinal fluid accumulation (BALB/c mice [9]): statistically significant reduction; Mortality 24 hrs (moribund) (BALB/c mice [8]): 2/5; Volume of fluid accumulating in the small intestine (BALB/c mice [8]): dose-dependent reduction

Question: Which “Mean Jv, distal colonic crypts” value [1] does the source give for `C=C[C@@]1(C)CC(=O)[C@]2(O)[C@@]3(C)[C@@H](O)CCC(C)(C)[C@@H]3[C@H](O)[C@H](OC(C)=O)[C@@]2(C)O1` [forskolin] here?
Answer: The value was −0.33±0.01 nL/min/mm.

Question: And the “Mean Jv, proximal colonic crypts” value [1]?
Answer: Its value is −0.32±0.02 nL/min/mm.

Question: Which “Effect on forskolin-stimulated increase in cell Cl^−” value ([6]; 100 μM basolateral) does the source give for `CCCCNc1cc(C(=O)O)cc(S(N)(=O)=O)c1Oc1ccccc1` [bumetanide] here?
Answer: Its value is “abolished”.

Question: And the “netJv in the absence of secretagogues” value (rat colonic crypts; added to basolateral bath)?
Answer: Its value is “increased the positive or absorptive ^netJv”.

Question: How did the “Net fluid movement (Jv) on exposure to secretagogue” value (“Net fluid movement (Jv) on exposure” for short) [3] turn out when Guanylin was run?
Answer: Its value is “induced net fluid secretion”.

Question: What about the “Net fluid movement (Jv) on exposure” value [4] of the same compound?
Answer: Its value is “induced net fluid secretion”.

Question: And the “Net fluid movement (Jv) on exposure” value [5]?
Answer: Its value is “induced net fluid secretion”.

Question: How did the Absorptive fluid movement (rat colonic crypts; in the presence of bumetanide) turn out when `CCCC(=O)Nc1ncnc2c1ncn2[C@@H]1O[C@@H]2COP(=O)(O)O[C@H]2[C@H]1OC(=O)CCC` [db-cyclic AMP, dibutyryl-cAMP] was run?
Answer: The Absorptive fluid movement was “substantially reduced”.
